Laboratory results from ChEMBL document CHEMBL1255248, “Fitness of Streptococcus pneumoniae fluoroquinolone-resistant strains with topoisomerase IV recombinant genes” (2008).
In brackets after ≈: the same amount, converted by molar mass.

Columns and labels:
Streptococcus pneumoniae [1] = experiment: Antimicrobial activity against ciprofloxacin-resistant Streptococcus pneumoniae T1 harboring parC mutant gene by agar dilution method
Streptococcus pneumoniae [2] = experiment: Antimicrobial activity against ciprofloxacin-resistant Streptococcus pneumoniae T2 harboring gyrA mutant gene by agar dilution method
Streptococcus pneumoniae [3] = experiment: Antimicrobial activity against ciprofloxacin-resistant Streptococcus pneumoniae T3 harboring gyrA mutant gene by agar dilution method
Streptococcus pneumoniae [4] = experiment: Antimicrobial activity against ciprofloxacin-resistant Streptococcus pneumoniae T4 harboring gyrA mutant gene by agar dilution method
Streptococcus pneumoniae [5] = experiment: Antimicrobial activity against ciprofloxacin-resistant Streptococcus pneumoniae T16 harboring parC mutant gene by agar dilution method
Streptococcus pneumoniae [6] = experiment: Antimicrobial activity against ciprofloxacin-resistant Streptococcus pneumoniae T20 harboring gyrA mutant gene by agar dilution method
Streptococcus pneumoniae [7] = experiment: Antimicrobial activity against ciprofloxacin-resistant Streptococcus pneumoniae T18 harboring gyrA mutant gene by agar dilution method
Streptococcus pneumoniae [8] = experiment: Antimicrobial activity against ciprofloxacin-resistant Streptococcus pneumoniae T19 harboring gyrA mutant gene by agar dilution method
Streptococcus pneumoniae [9] = experiment: Antimicrobial activity against ciprofloxacin-resistant Streptococcus pneumoniae T21 harboring parC mutant gene by agar dilution method
Streptococcus pneumoniae [10] = experiment: Antimicrobial activity against ciprofloxacin-resistant Streptococcus pneumoniae T25 harboring gyrA mutant gene by agar dilution method
Streptococcus pneumoniae [11] = experiment: Antimicrobial activity against ciprofloxacin-resistant Streptococcus pneumoniae T23 harboring gyrA mutant gene by agar dilution method
Streptococcus pneumoniae [12] = experiment: Antimicrobial activity against ciprofloxacin-resistant Streptococcus pneumoniae T24 harboring gyrA mutant gene by agar dilution method
Streptococcus pneumoniae [13] = experiment: Antimicrobial activity against ciprofloxacin-resistant Streptococcus pneumoniae T26 harboring parC mutant gene by agar dilution method
Streptococcus pneumoniae [14] = experiment: Antimicrobial activity against ciprofloxacin-resistant Streptococcus pneumoniae T30 harboring gyrA mutant gene by agar dilution method
Streptococcus pneumoniae [15] = experiment: Antimicrobial activity against ciprofloxacin-resistant Streptococcus pneumoniae T28 harboring gyrA mutant gene by agar dilution method
Streptococcus pneumoniae [16] = experiment: Antimicrobial activity against ciprofloxacin-resistant Streptococcus pneumoniae T29 harboring gyrA mutant gene by agar dilution method
Streptococcus pneumoniae [17] = experiment: Antimicrobial activity against ciprofloxacin-resistant Streptococcus pneumoniae T6 harboring parC mutant gene by agar dilution method
Streptococcus pneumoniae [18] = experiment: Antimicrobial activity against ciprofloxacin-resistant Streptococcus pneumoniae T7 harboring gyrA mutant gene by agar dilution method
Streptococcus pneumoniae [19] = experiment: Antimicrobial activity against ciprofloxacin-resistant Streptococcus pneumoniae T8 harboring gyrA mutant gene by agar dilution method
Streptococcus pneumoniae [20] = experiment: Antimicrobial activity against ciprofloxacin-resistant Streptococcus pneumoniae T9 harboring gyrA mutant gene by agar dilution method
Streptococcus pneumoniae [21] = experiment: Antimicrobial activity against ciprofloxacin-resistant Streptococcus pneumoniae T11 harboring parE-ant-parC mutant gene by agar dilution method
Streptococcus pneumoniae [22] = experiment: Antimicrobial activity against ciprofloxacin-resistant Streptococcus pneumoniae T12 harboring gyrA mutant gene by agar dilution method
Streptococcus pneumoniae [23] = experiment: Antimicrobial activity against ciprofloxacin-resistant Streptococcus pneumoniae T13 harboring gyrA mutant gene by agar dilution method
Streptococcus pneumoniae [24] = experiment: Antimicrobial activity against ciprofloxacin-resistant Streptococcus pneumoniae T14 harboring gyrA mutant gene by agar dilution method

O=C(O)c1cn(C2CC2)c2cc(N3CCNCC3)c(F)cc2c1=O [CIPROFLOXACIN]
MIC (Streptococcus pneumoniae [1]): 4 µg/mL (≈ 12.1 µM)
MIC (Streptococcus pneumoniae [2]): 32 µg/mL (≈ 96.6 µM)
MIC (Streptococcus pneumoniae [3]): 32 µg/mL (≈ 96.6 µM)
MIC (Streptococcus pneumoniae [4]): 32 µg/mL (≈ 96.6 µM)
MIC (Streptococcus pneumoniae [5]): 2 µg/mL (≈ 6.04 µM)
MIC (Streptococcus pneumoniae [6]): 32 µg/mL (≈ 96.6 µM)
MIC (Streptococcus pneumoniae [7]): 64 µg/mL (≈ 193 µM)
MIC (Streptococcus pneumoniae [8]): 32 µg/mL (≈ 96.6 µM)
MIC (Streptococcus pneumoniae [9]): 2 µg/mL (≈ 6.04 µM)
MIC (Streptococcus pneumoniae [10]): 16 µg/mL (≈ 48.3 µM)
MIC (Streptococcus pneumoniae [11]): 16 µg/mL (≈ 48.3 µM)
MIC (Streptococcus pneumoniae [12]): 16 µg/mL (≈ 48.3 µM)
MIC (Streptococcus pneumoniae [13]): 4 µg/mL (≈ 12.1 µM)
MIC (Streptococcus pneumoniae [14]): 32 µg/mL (≈ 96.6 µM)
MIC (Streptococcus pneumoniae [15]): 32 µg/mL (≈ 96.6 µM)
MIC (Streptococcus pneumoniae [16]): 32 µg/mL (≈ 96.6 µM)
MIC (Streptococcus pneumoniae [17]): 2 µg/mL (≈ 6.04 µM)
MIC (Streptococcus pneumoniae [18]): 32 µg/mL (≈ 96.6 µM)
MIC (Streptococcus pneumoniae [19]): 32 µg/mL (≈ 96.6 µM)
MIC (Streptococcus pneumoniae [20]): 32 µg/mL (≈ 96.6 µM)
MIC (Streptococcus pneumoniae [21]): 2 µg/mL (≈ 6.04 µM)
MIC (Streptococcus pneumoniae [22]): 32 µg/mL (≈ 96.6 µM)
MIC (Streptococcus pneumoniae [23]): 32 µg/mL (≈ 96.6 µM)
MIC (Streptococcus pneumoniae [24]): 32 µg/mL (≈ 96.6 µM)
